Source: patent US9956171B2, “Liquid inhalation formulation comprising RPL554” (VERONA PHARMA PLC, priority 2014, dated 2018)

Experiment: Particle size distribution of micronized RPL554 by laser diffraction (Malvern Spraytec)
Format: physicochemical
Description: The technique used to measure the Dv50 value is typically laser diffraction. For instance, the RPL554 particles typically have a particle size distribution with a Dv50 value of from about 0.2 μm to about 5 μm as measured by laser diffraction. The particle size distribution analysis can be performed by laser diffraction using the Malvern Spraytec in conjunction with a wet dispersion cell. Typically, the instrument parameters for the Malvern Spraytec are as follows: • particle—standard opaque particle; • refractive index Particle—1.50; • refractive index (imaginary)—0.50; • density of particle—1.00; • refractive index of dispersant—1.33; • controller unit—1000 RPM; • measurement type—timed; • initial sampling time—30 s; • obscuration—20%-30%; • dispersant—1% Polysorbate 20 in deionised water.
The particle size distribution of a sample of micronized RPL554 suitable for use in nebulized formulations was evaluated using laser diffraction. The particle size distribution analysis was performed by laser diffraction using the Malvern Spraytec in conjunction with a wet dispersion cell.

## COc1cc2c(cc1OC)-c1c/c(=N\c3c(C)cc(C)cc3C)n(CCNC(N)=O)c(=O)n1CC2 [RPL554, 9,10-Dimethoxy-2-(2,4,6-trimethylphenylimino)-3-(N-carbamoyl-2-aminoethyl)-3,4,6,7-tetrahydro-2H-pyrimido[6,1-a]isoquinolin-4-one]
  Dv10: 0.69 μm
  Dv50: 1.35 μm
  Dv90: 2.5 μm
